Consider 45 compounds from patent US5362751A, “Tracheobronchodilator using 16-substituted PGEs” (priority 1988, dated 1994).

The subject of one data set is tracheal smooth muscle. The data set can be described thus: Tracheaectasy: inhibition of histamin-induced contraction of circular slices of guinea pig trachea in Magnus tube. The following applies: contraction by 5.4×10^-4 M histamin, cumulative administration; for IC20: read-out: IC20 (concentration exhibiting the inhibition rate of 20%); for IC50: read-out: IC50 (concentration exhibiting the inhibition rate of 50%). On the procedure: A male guinea pig weighing about 300 g was beaten to death, and immediately drew the blood by cutting its arteriae femoral as pouring water. A trachea was picked out and cut lengthwise at the opposite side of tracheal smooth muscle and cut into circular slices between cartilages. The obtained seven circular slices of the trachea were tied like as a chain with a thread, and hung into Magnus tube.
After the circular slices of trachea were held for 60-90 minutes until it became stable (disappearence of convulsion), they were administered with 5.4×10^-4 M of histamin to be contracted. After the contraction reached to maximum, each test drug was cumulatively administered so as to inhibit the contraction caused by the histamin.

The subject of another data set is trachea of humans. Kind of data set: Stimuli of trachea by spraying inhalation in humans. In kind it is in vivo, human. The following applies: 10 μg/ml solution sprayed at 2 ml/min, ultrasonic inhaler. As for the experimental part: The strength of stimuli to trachea of humans was evaluated by actual spraying inhalation.
Each test drug was dissolved with a small amount of ethyl alcohol, to which distilled water was added to prepare a solution containing test drug at a concentration of 10 μg/ml. Four panels (K, D, T and O) were sprayed into their throats with the each test solution at a rate of 2 ml/min using an ultrasonic inhaler (NE-U10B available from Omlon K.K.), and the strength of the stimuli was observed.

A further data set deals with airway resistance. The data set can be described thus: Inhibition of increase of airway resistance due to histamin in anesthetized guinea pig. Type of data set: in vivo. Particulars: intravenous, histamin 3 μg/kg one minute later. On the procedure:
A male guinea pig weighing 300-400 g was intraperitoneally anesthetized with urethane 1.5 g/kg. The test animal was cannulated through the trachea, and then bromopanchlonium was intravenously administered at 0.3 mg/kg to make the test animal inactivate. The animal was respired using a vespirater for a small animal. The airway resistance was recorded on a recorder using a bronchospasin transducer. The administration of the test drug was made through a cannula into the jugular vein. The histamin was administered three times of each 3 μg/kg at 30 minutes intervals, and the increase of the airway resistance was determined. After the determination the test drug was intervenously administered, and then 4th administration of histamin was done after one minute. The increase of airway resistance due to histamin before and after the administration of the test drug was determined, from which inhibition rate of the increase due to the test drug was evaluated.

The structures appear in SMILES notation. Read-outs that look alike come from different tables or passages of the source.

With `COCCCCCC(=O)CC[C@H]1[C@H](O)CC(=O)[C@@H]1C/C=C\CC(C)CC(=O)OC` (stereo partly shown) [compound 44], the IC20 with tracheal smooth muscle (Cavia porcellus) amounted to 10000 nM.

Regarding `CCC[C@H](C)CC(=O)CC[C@H]1[C@H](O)CC(=O)[C@@H]1C/C=C\CCCC(=O)OC` [compound 39], in the data set on tracheal smooth muscle (Cavia porcellus), the IC20 came to 3000 nM and the IC50 stood at 60 µM.

For `CCCCC(F)C(=O)CC[C@H]1[C@H](O)CC(=O)[C@@H]1CCCCCCC(=O)O` (stereo partly shown) [compound 62], in the data set on tracheal smooth muscle (Cavia porcellus), the IC20 was found to be 4000 nM.

Turning to `CCCCCC(=O)/C=C/[C@H]1[C@H](O)CC(=O)[C@@H]1C/C=C\CCCC(=O)O` [compound 54], in the data set with tracheal smooth muscle (Cavia porcellus), the IC20 was found to be 8000 nM and the IC50 is 30 µM.

With `CCCCCC(F)C(=O)CC[C@H]1[C@H](O)CC(=O)[C@@H]1C/C=C\CCCC(=O)OC` (stereo partly shown) [compound 36], in the data set with tracheal smooth muscle (Cavia porcellus), the IC20 amounted to 500 nM and the IC50 amounted to 5 µM.

`CCCCC(F)C(=O)CC[C@H]1[C@H](CC)CC(=O)[C@@H]1C/C=C\CCCC(=O)OCC` (stereo partly shown) [compound 37]: in the data set with tracheal smooth muscle (Cavia porcellus), the IC20 was 400 nM and the IC50 turned out to be 8 µM.

For `COCCCC(=O)CC[C@H]1[C@H](O)CC(=O)[C@@H]1C/C=C\CCCC(=O)OC` [compound 47], in the data set with tracheal smooth muscle (Cavia porcellus), the IC20 came to 600 nM and the IC50 was 3 µM.

For `CCCCC(C)C(=O)CC[C@H]1[C@H](O)CC(=O)[C@@H]1CC(=O)CCCCC(=O)OC` (stereo partly shown) [Test drug 9, 13,14-dihydro-6,15-diketo-16R,S-methyl-PGE1 methyl ester], the “strength of stimuli to trachea, panel D” value in the data set with trachea of humans (panel D) is reported as “-”. For the same compound, the “strength of stimuli to trachea, panel K” value with trachea of humans (panel K) was “-”. Further, in the data set with trachea of humans (panel O), the “strength of stimuli to trachea, panel O” value is “-”. Besides, in the data set with trachea of humans (panel T), the “strength of stimuli to trachea, panel T” value is “-”.

Consider `CCCCC(F)C(=O)CC[C@H]1[C@H](O)CC(=O)[C@@H]1C/C=C\CCCC(=O)OCC` (stereo partly shown) [compound 35], for which, in the data set with tracheal smooth muscle (Cavia porcellus), the IC20 came to 900 nM and the IC50 was determined as 20 µM.

Regarding `COCCCCCC(=O)CC[C@H]1[C@H](O)CC(=O)[C@@H]1CC#CCCCC(=O)OC` [compound 46], the IC20 in the data set with tracheal smooth muscle (Cavia porcellus) worked out at 10000 nM.

For the compound `CCCCC(C)C(=O)CC[C@H]1[C@H](O)CC(=O)[C@@H]1CCCCCCC(=O)OC` (stereo partly shown) [compound 64], in the data set on tracheal smooth muscle (Cavia porcellus), the IC20 came out at 300 nM and the IC50 came out at 1 µM.

For the compound `CCCCC[C@H](O)/C=C/[C@H]1[C@H](O)CC(=O)[C@@H]1CCCCCCC(=O)O` [compound 56], in the data set with tracheal smooth muscle (Cavia porcellus), the IC20 is 2 nM and the IC50 was determined as 0.08 µM.

With `CCCCCC(=O)CC[C@H]1[C@H](C)CC(=O)[C@@H]1C/C=C\CCCC(=O)OCC` [compound 38], in the data set on tracheal smooth muscle (Cavia porcellus), the IC20 came out at 600 nM and the IC50 turned out to be 7 µM.

As to `CCCCCCCC(=O)CC[C@H]1[C@H](O)CC(=O)[C@@H]1C/C=C\CCCC(=O)OC` [compound 50], the IC20 with tracheal smooth muscle (Cavia porcellus) came to 20000 nM.

Take `CCCCC(C)(C)C(=O)CCC1C(O)CC(=O)C1CC=CCCCC(=O)OCC` (stereo not shown) [compound 31]: in the data set with tracheal smooth muscle, the IC20 came to 400 nM and the IC50 stood at 2 µM.

For `CCCCC[C@H](O)/C=C/[C@H]1[C@H](O)CC(=O)[C@@H]1C/C=C\CCCC(=O)O` [compound 57], in the data set on tracheal smooth muscle (Cavia porcellus), the IC20 turned out to be 10 nM and the IC50 turned out to be 0.1 µM.

`COC(=O)CCCCC(=O)CC1C(=O)CC(O)C1CCC(=O)CCCC(C)C` (stereo not shown) [compound 13]: in the data set with tracheal smooth muscle, the IC20 worked out at 1000 nM and the IC50 was 30 µM.

Turning to `CCCCC(C)C(=O)CC[C@H]1[C@H](O)CC(=O)[C@@H]1C/C=C\CC(C)CC(=O)OC` (stereo partly shown) [compound 29], in the data set with tracheal smooth muscle, the IC20 came out at 600 nM and the IC50 is 7 µM.

Take `CCCCCCCC(=O)CC[C@H]1[C@H](C)CC(=O)[C@@H]1C/C=C\CCCC(=O)OC` [compound 52]: the IC20 with tracheal smooth muscle (Cavia porcellus) is 1000 nM.

Turning to `CCOC(=O)CCCCC(=O)CC1C(=O)CC(O)C1CCC(=O)CCCC(C)C` (stereo not shown) [compound 14], in the data set on tracheal smooth muscle, the IC20 worked out at 900 nM and the IC50 came to 30 µM.

With `CCCCCCCCC(=O)CC[C@H]1[C@H](O)CC(=O)[C@@H]1C/C=C\CCCC(=O)OC` [compound 53], in the data set with tracheal smooth muscle (Cavia porcellus), the IC20 is 10000 nM.

`COC(=O)CCC/C=C\C[C@H]1C(=O)C[C@@H](O)[C@@H]1CCC(=O)CCCCC=C(C)C` [compound 49]: the IC20 in the data set with tracheal smooth muscle (Cavia porcellus) is 7000 nM.

Regarding `CCCCC(C)C(=O)CCC1C(O)CC(=O)C1CC(=O)CCCCC(=O)OC` (stereo not shown) [compound 9], in the data set on tracheal smooth muscle, the IC20 is 100 nM and the IC50 was 0.4 µM.

On to `CCC[C@H](C)CC(=O)CC[C@H]1[C@H](O)CC(=O)[C@@H]1C/C=C\CCCC(=O)OCC` [compound 58], for which, in the data set on tracheal smooth muscle (Cavia porcellus), the IC20 worked out at 1000 nM and the IC50 came to 30 µM.

As for `CCC[C@H](C)CC(=O)/C=C/[C@H]1[C@H](O)CC(=O)[C@@H]1C/C=C\CCCC(=O)OCC` [compound 61], in the data set with tracheal smooth muscle (Cavia porcellus), the IC20 is 700 nM and the IC50 came to 2.5 µM.

Turning to `CCCCCC(=O)CC[C@H]1[C@H](O)CC(=O)[C@@H]1C/C=C\CC(C)CC(=O)OC` (stereo partly shown) [compound 25], the IC20 with tracheal smooth muscle came to 40000 nM.

`CCCCCCC(=O)CC[C@H]1[C@H](O)CC(=O)[C@@H]1CCCCCCC(=O)O` [compound 59]: in the data set on tracheal smooth muscle (Cavia porcellus), the IC20 came to 1000 nM and the IC50 stood at 4 µM.

As to `CCCCCCCC(=O)CC[C@H]1[C@H](O)CC(=O)[C@@H]1C/C=C\CCCC(=O)OCC` [compound 51], in the data set with tracheal smooth muscle (Cavia porcellus), the IC20 worked out at 1000 nM and the IC50 amounted to 10 µM.

As for `CCCCC(F)C(=O)/C=C/[C@H]1[C@H](O)CC(=O)[C@@H]1C/C=C\CCCC(=O)O` (stereo partly shown) [compound 60], in the data set with tracheal smooth muscle (Cavia porcellus), the IC20 came to 3000 nM and the IC50 came to 7 µM.

For the compound `CCCCC(C)C(=O)CCC1C(O)CC(=O)C1CC=CCCCC(=O)OCC` (stereo not shown) [compound 28], in the data set with tracheal smooth muscle, the IC20 stood at 700 nM and the IC50 was found to be 7 µM.

Consider `COCCCCC(C)(C)C(=O)CC[C@H]1[C@H](O)CC(=O)[C@@H]1C/C=C\CCCC(=O)OC` [compound 45], for which, in the data set on tracheal smooth muscle (Cavia porcellus), the IC20 amounted to 2000 nM and the IC50 turned out to be 10 µM.

With `CCCCCCC(=O)CC[C@H]1[C@H](O)CC(=O)[C@@H]1CC(=O)CCCCC(=O)OCC` [compound 15], in the data set on tracheal smooth muscle, the IC20 worked out at 500 nM and the IC50 was 4 µM.

With `CCCCC(C)(C)C(=O)CC[C@H]1[C@H](O)CC(=O)[C@@H]1C/C=C\CCCC(=O)OC` [compound 30], in the data set on tracheal smooth muscle, the IC20 was found to be 600 nM and the IC50 amounted to 2 µM.

`CCCCC(F)C(=O)/C=C/[C@H]1[C@H](O)CC(=O)[C@@H]1C/C=C\CCCC(=O)OC` (stereo partly shown) [compound 55]: in the data set on tracheal smooth muscle (Cavia porcellus), the IC20 turned out to be 2000 nM and the IC50 amounted to 10 µM.

On to `COCCCCCC(=O)CC[C@H]1[C@H](O)CC(=O)[C@@H]1C/C=C\CCCC(=O)OC` [compound 42], for which the IC20 in the data set on tracheal smooth muscle (Cavia porcellus) is 10000 nM.

For `CCCCC(C)C(=O)CC[C@H]1[C@H](O)CC(=O)[C@@H]1C/C=C\CCCC(=O)OC` (stereo partly shown) [compound 27], in the data set on tracheal smooth muscle, the IC20 was determined as 80 nM and the IC50 came out at 0.4 µM.

With `CCOC(=O)CCC/C=C\C[C@H]1C(=O)C[C@@H](O)[C@@H]1CCC(=O)CCCC(C)C` [compound 41], the IC20 in the data set with tracheal smooth muscle (Cavia porcellus) amounted to 4000 nM.

On to `CCCCC(C)C(=O)CCC1C(O)CC(=O)C1CC(=O)CCCCC(=O)OCC` (stereo not shown) [compound 10], for which, in the data set on tracheal smooth muscle, the IC20 was 100 nM and the IC50 came out at 0.6 µM.

On to `CCCCC[C@H](O)/C=C/[C@H]1[C@H](O)CC(=O)[C@@H]1C/C=C\CCCC(=O)O` [Test drug 57, (z)-7-{(1R,2R,3R)-3-hydroxy-2-[(E)-(3S)-3-hydroxy-1-octenyl]-5-oxo-cyclopentyl}-hept-5-enoic acid, reference compound], for which, in the data set with airway resistance (dose 3 μg/kg), the “inhibition rate of increase of airway resistance” value came to 92%.

As for `CC(C)=CCCCCC(=O)CC[C@H]1[C@H](O)CC(=O)[C@@H]1C/C=C\CCCC(=O)O` [compound 48], the IC20 in the data set on tracheal smooth muscle (Cavia porcellus) is 10000 nM.

As for `CCCCC(F)(F)C(=O)CC[C@H]1[C@H](O)CC(=O)[C@@H]1C/C=C\CCCC(=O)O` [13,14-dihydro-15-keto-16,16-difluoro-PGE2], the results for the “inhibition rate of increase of airway resistance” value with airway resistance (dose 1 μg/kg) and with airway resistance (dose 3 μg/kg) were 42% and 100%, respectively.

As for `CCOC(=O)CCCCC(=O)C[C@H]1C(=O)C[C@@H](O)[C@@H]1CCC(=O)CCC(C)CC` (stereo partly shown) [compound 63], the IC20 with tracheal smooth muscle (Cavia porcellus) amounted to 10000 nM.

On to `CCCCC(C)(C)C(=O)CC[C@H]1[C@H](O)CC(=O)[C@@H]1CC(=O)CCCCC(=O)OCC` [compound 11], for which, in the data set with tracheal smooth muscle, the IC20 was found to be 800 nM and the IC50 came to 4 µM.

Take `CCCCCC(=O)CCC1C(O)CC(=O)C1CC=CCC(C)CC(=O)OCC` (stereo not shown) [compound 26]: in the data set on tracheal smooth muscle, the IC20 was determined as 1000 nM and the IC50 came to 7 µM.

Regarding `COC(=O)CCC/C=C\C[C@H]1C(=O)C[C@@H](O)[C@@H]1CCC(=O)CCCC(C)C` [compound 40], in the data set on tracheal smooth muscle (Cavia porcellus), the IC20 turned out to be 2000 nM and the IC50 was 40 µM.
